Experiments:
[1] = 101.33 kPa, Liquid
[2] = refractive index (Na D-line) (dimensionless); details: 101.33 kPa, Liquid
[3] = xn = mol fraction of the nth substance listed; details: 101.3 kPa, Liquid
[4] = refractive index (Na D-line) (dimensionless); xn = mol fraction of the nth substance listed; details: 101.3 kPa, Liquid

Cc1ccccc1C [1,2-dimethylbenzene]
Details | mass density, [1] [kg/m3] | refractive index, [2] | viscosity, [1] [mPa·s]
303.15 K | 870.8 | 1.5001 | 0.695
313.15 K | 863.3 | 1.4981 | 0.621

Cc1ccc(C)cc1 [1,4-dimethylbenzene]
Details | mass density, [1] [kg/m3] | refractive index, [2] | viscosity, [1] [mPa·s]
303.15 K | 851.9 | 1.4911 | 0.566
313.15 K | 844 | 1.4902 | 0.517

Cc1cccc(C)c1 [1,3-dimethylbenzene]
Details | mass density, [1] [kg/m3] | refractive index, [2] | viscosity, [1] [mPa·s]
303.15 K | 855.3 | 1.492 | 0.557
313.15 K | 847.1 | 1.4901 | 0.508

CCc1ccccc1 [ethylbenzene]
Details | mass density, [1] [kg/m3] | refractive index, [2] | viscosity, [1] [mPa·s]
303.15 K | 857.6 | 1.491 | 0.597
313.15 K | 849.2 | 1.4891 | 0.538

CCOC=O [ethyl methanoate] + CCc1ccccc1
Details | mass density, [3] [kg/m3] | refractive index, [4] | viscosity, [3] [mPa·s]
303.15 K, x1 = 0.1478 | 862.2 | 1.4809 | 0.558
303.15 K, x1 = 0.2728 | 869.9 | 1.4691 | 0.527
303.15 K, x1 = 0.3884 | 871.2 | 1.4568 | 0.499
303.15 K, x1 = 0.4978 | 876.3 | 1.4431 | 0.473
303.15 K, x1 = 0.6 | 881.8 | 1.4286 | 0.45
303.15 K, x1 = 0.6925 | 886.6 | 1.4157 | 0.43
303.15 K, x1 = 0.7768 | 891 | 1.4058 | 0.413
303.15 K, x1 = 0.851 | 896.6 | 1.3938 | 0.397
303.15 K, x1 = 0.9309 | 903.7 | 1.3709 | 0.38
313.15 K, x1 = 0.1478 | 853.7 | 1.4791 | 0.502
313.15 K, x1 = 0.2728 | 857.7 | 1.4682 | 0.476
313.15 K, x1 = 0.3884 | 861.8 | 1.4532 | 0.452
313.15 K, x1 = 0.4978 | 866.3 | 1.4415 | 0.42
313.15 K, x1 = 0.6 | 873.2 | 1.4269 | 0.409
313.15 K, x1 = 0.6925 | 875.9 | 1.4142 | 0.391
313.15 K, x1 = 0.7768 | 880 | 1.4042 | 0.376
313.15 K, x1 = 0.851 | 885.1 | 1.3921 | 0.363
313.15 K, x1 = 0.9309 | 891.7 | 1.3695 | 0.351

CCOC(=O)c1ccccc1 [ethyl benzoate]
Details | mass density, [1] [kg/m3] | refractive index, [2] | viscosity, [1] [mPa·s]
303.15 K | 1037.4 | 1.5009 | 1.748
313.15 K | 1028.5 | 1.4997 | 1.438

CCOC=O [ethyl methanoate] + Cc1ccccc1C
Details | mass density, [3] [kg/m3] | refractive index, [4] | viscosity, [3] [mPa·s]
303.15 K, x1 = 0.1467 | 872.7 | 1.4906 | 0.63
303.15 K, x1 = 0.2667 | 877.4 | 1.4873 | 0.586
303.15 K, x1 = 0.3779 | 880 | 1.4786 | 0.544
303.15 K, x1 = 0.4984 | 882.6 | 1.4721 | 0.502
303.15 K, x1 = 0.5936 | 886.9 | 1.4631 | 0.471
303.15 K, x1 = 0.694 | 891.2 | 1.4347 | 0.444
303.15 K, x1 = 0.7791 | 896.7 | 1.4072 | 0.42
303.15 K, x1 = 0.8563 | 901.2 | 1.3981 | 0.4
303.15 K, x1 = 0.9337 | 903.7 | 1.3729 | 0.378
313.15 K, x1 = 0.1467 | 864.6 | 1.4896 | 0.558
313.15 K, x1 = 0.2667 | 868.5 | 1.4819 | 0.521
313.15 K, x1 = 0.3779 | 871.9 | 1.4735 | 0.487
313.15 K, x1 = 0.4984 | 873.7 | 1.4671 | 0.452
313.15 K, x1 = 0.5936 | 876.9 | 1.4612 | 0.43
313.15 K, x1 = 0.694 | 881.6 | 1.4216 | 0.402
313.15 K, x1 = 0.7791 | 885.9 | 1.4061 | 0.382
313.15 K, x1 = 0.8563 | 889.6 | 1.3969 | 0.366
313.15 K, x1 = 0.9337 | 891.1 | 1.3701 | 0.359

CCOC=O [ethyl methanoate]
Details | mass density, [1] [kg/m3] | refractive index, [2] | viscosity, [1] [mPa·s]
303.15 K | 908.1 | 1.3552 | 0.366
313.15 K | 894.9 | 1.3549 | 0.339

Reference: the NIST ThermoML archive (doi:10.1021/je0400052)
